Measurements reported in the supplement of paper PMC11451515.

What was measured:
Assay in all cases: AUC of viability dose-response curve (% viability x log10 dose units); higher = less sensitive
Conditions in all cases: 48 h
NOMO1 = tested on: NOMO1
Method in brief: (§1)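 Viability of medium-adapted leukemia cells was measured by CellTiter-Glo One luminescence after 48 h at 37°C with library compounds in DMSO. Doses were 11 threefold steps from 47 μM to 0.79 nM, in 1536-well plates at 500 or 1000 cells/well. Signals were normalised per plate to DMSO and cell-free wells and fitted with a four-parameter log-logistic model on log10 dose. Area under the curve was integrated by trapezoidal rule, with curves exceeding full viability scaled and failed quality-control curves removed.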

P12-Ichikawa = tested on: P12-Ichikawa
Method in brief: as §1

SEM cells = tested on: SEM cells
Method in brief: as §1

[1] = RPMI 5 mM glucose + 10% dialyzed FBS

Structure (SMILES) | AUC of viability dose-response curve (NOMO1; HPLM + 10% dialyzed FBS) | AUC of viability dose-response curve (NOMO1; RPMI 5 mM glucose + 10% FBS) | AUC of viability dose-response curve (NOMO1; [1]) | AUC of viability dose-response curve (P12-Ichikawa; HPLM + 10% dialyzed FBS) | AUC of viability dose-response curve (P12-Ichikawa; RPMI 5 mM glucose + 10% FBS) | AUC of viability dose-response curve (P12-Ichikawa; [1]) | AUC of viability dose-response curve (SEM cells; HPLM + 10% dialyzed FBS) | AUC of viability dose-response curve (SEM cells; RPMI 5 mM glucose + 10% FBS) | AUC of viability dose-response curve (SEM cells; [1])
OC[C@H]1O[C@H](C[C@@H]1O)N2\C=C(\I)C(=O)NC2=O | 456 | 470 | 446 | 435 | 462 | 472 | 452 | 454 | 386
CCN(CC)CCNC(=O)c1ccc2nc(-c3ccccc3)c(-c3ccc(CN4CCC(n5c(=O)[nH]c6ccccc65)CC4)cc3)nc2c1 | 354 | 400 | 399 | 355 | 380 | 358 | 246 | 221 | 243
N[C@@H](Cc1ccc(N(CCCl)CCCl)cc1)C(=O)O | 400 | 422 | 415 | 410 | 374 | 387 | 377 | 355 | 362
CCCCCCCN(CC)CCCC(O)c1ccc(NS(C)(=O)=O)cc1.CCCCCCCN(CC)CCCC(O)c1ccc(NS(C)(=O)=O)cc1.O=C(O)/C=C/C(=O)O (configuration not stated) | 471 | 463 | 464 | 460 | 457 | 461 | 446 | 421 | 443
CCC[S+](=O)([O-])Nc1ccc(F)c(C(=O)c2c[nH]c3ncc(-c4ccc(Cl)cc4)cc23)c1F | 445 | 477 | 461 | 455 | 452 | 446 | 470 | 474 | 464
CCNC(=O)c1noc(-c2cc(C(C)C)c(O)cc2O)c1-c1ccc(CN2CCOCC2)cc1 | 253 | 240 | 248 | 333 | 302 | 312 | 225 | 224 | 232
COc1ccccc1N1CCN(CC(O)COc2cccc3ccccc23)CC1 (configuration not stated) | 450 | 448 | 431 | 467 | 439 | 441 | 473 | 455 | 449
COC1=CC=CC(=C1/C2=N/CC3=C(N=C(NC4=CC(=C(C=C4)C(O)=O)OC)N=C3)C5=CC=C(Cl)C=C25)F | 312 | 291 | 297 | 210 | 217 | 230 | 241 | 221 | 216
CCCC[N+]1(C)[C@@H]2CC(OC(=O)[C@H](CO)c3ccccc3)C[C@H]1[C@@H]1O[C@@H]12 (some centres not stated) | 420 | 431 | 450 | 452 | 450 | 460 | 462 | 471 | 475
C=C1C(=O)O[C@@H]2[C@H]3O[C@]3(C)CC/C=C(\C)CC[C@@H]12 | 360 | 375 | 386 | 347 | 358 | 351 | 328 | 275 | 329
NC/1=N/C(=O)C2=C([NH]C=C2CCC3=CC=C(C=C3)C(=O)N[C@@H](CCC(O)=O)C(O)=O)N1 | 358 | 446 | 398 | 372 | 408 | 409 | 355 | 444 | 371
O=C(O)C(=O)Nc1cccc(-c2nnn[nH]2)c1 | 463 | 457 | 452 | 455 | 477 | 470 | 422 | 451 | 462
CNC(=O)c1ccccc1Sc1ccc2c(/C=C/c3ccccn3)n[nH]c2c1 | 425 | 430 | 418 | 390 | 386 | 409 | 407 | 389 | 395
CC[C@@H](C)[C@H](NC(=O)[C@H](CC1CCCCC1)NC(=O)c1ccno1)C(=O)N1CCC2(CCc3ccccc32)CC1 | 399 | 385 | 385 | 418 | 394 | 388 | 382 | 381 | 449
CNC(=O)c1cc(Oc2ccc(NC(=O)Nc3ccc(Cl)c(C(F)(F)F)c3)c(F)c2)ccn1 | 444 | 438 | 440 | 422 | 422 | 427 | 296 | 314 | 275
C[C@]12CCC(=O)C(O)=C1CC[C@@H]1[C@@H]2CC[C@]2(C)C(=O)CC[C@@H]12 | 467 | 454 | 462 | 468 | 455 | 459 | 473 | 471 | 460
Clc1ccc(C(Cn2ccnc2)OCc2ccc(Sc3ccccc3)cc2)c(Cl)c1 (configuration not stated) | 441 | 450 | 453 | 453 | 453 | 455 | 416 | 445 | 438
NCC/1=C/NC(=S)N1[C@H]2CCC3=C(F)C=C(F)C=C3C2 | 395 | 470 | 466 | 464 | 463 | 462 | 458 | 453 | 456
CCOC(=O)c1c(/C(C#N)=C\N)c2ccc(Cl)c(Cl)c2n1C | 442 | 395 | 407 | 432 | 412 | 429 | 412 | 427 | 408
CC=CC1=C(C(=O)O)N2C(=O)[C@@H](NC(=O)[C@H](N)c3ccc(O)cc3)[C@H]2SC1.O | 370 | 342 | 376 | 415 | 416 | 429 | 395 | 460 | 447
COc1cc([S+](C)(=O)[O-])ccc1Nc1nc2ccc(-c3ccc(NC(=O)[C@H](C)c4ccc(F)cc4)cc3)cn2n1 | 430 | 439 | 436 | 396 | 386 | 394 | 377 | 369 | 384
Cc1cc(-c2ccc(CC(=O)Nc3ccc(-c4cccnc4)cc3)cc2)ccn1 | 380 | 420 | 413 | 439 | 447 | 438 | 392 | 418 | 413
CCc1nc(C(N)=O)c(Nc2ccc(N3CCC(N4CCN(C)CC4)CC3)c(OC)c2)nc1NC1CCOCC1 | 389 | 410 | 363 | 438 | 436 | 434 | 291 | 285 | 277
O=C(c1ccc(C(=O)N2CCC(N3CCCC3)CC2)c(Nc2ccccc2)c1)N1CCC(N2CCCC2)CC1 | 462 | 452 | 458 | 468 | 466 | 465 | 443 | 461 | 462
Oc1ccc(C2CNCCc3c2cc(O)c(O)c3Cl)cc1 (configuration not stated) | 449 | 425 | 454 | 453 | 456 | 427 | 441 | 426 | 438
COC(=O)Nc1nc2cc(Sc3ccccc3)ccc2[nH]1 | 377 | 391 | 387 | 377 | 376 | 382 | 377 | 365 | 371
CN1C(=O)\C(=C/C2=C1N=C(NC3CCOCC3)N=C2)OC4=C(F)C=C(F)C=C4 | 420 | 406 | 413 | 428 | 429 | 420 | 439 | 463 | 430
CN(C)[C@H]\1[C@@H]2[C@@H](O)[C@H]3\C(=C(O)/[C@]2(O)C(=O)\C(=C1O)C(N)=O)C(=O)C4=C(C=CC=C4O)[C@@]3(C)O | 448 | 459 | 449 | 454 | 456 | 421 | 459 | 463 | 476
